# Experimental data published in PubChem BioAssay AID588808 (Broad Institute, 2011).
# Calls of active or inactive are those of the source.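 The calls were made as follows: active = Aurora B inhibition with potency within ten times the top dose, in every repeat test; inconclusive = repeat tests disagree in their calls; inactive = every repeat test inactive.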
# Biological target: Aurora kinase B (Homo sapiens) (UniProt Q96GD4)
# Test: AURKB enzyme activity inhibitors – biochemical, scintillation, dry powder, set 3, counter-screen for STK33 inhibitor project, dose response (AID 588808)
# Settings: Recombinant Aurora B, 33P-ATP filter-binding scintillation
# Chain of Aurora kinase B (Homo sapiens) (Q96GD4 whole entry, looked up): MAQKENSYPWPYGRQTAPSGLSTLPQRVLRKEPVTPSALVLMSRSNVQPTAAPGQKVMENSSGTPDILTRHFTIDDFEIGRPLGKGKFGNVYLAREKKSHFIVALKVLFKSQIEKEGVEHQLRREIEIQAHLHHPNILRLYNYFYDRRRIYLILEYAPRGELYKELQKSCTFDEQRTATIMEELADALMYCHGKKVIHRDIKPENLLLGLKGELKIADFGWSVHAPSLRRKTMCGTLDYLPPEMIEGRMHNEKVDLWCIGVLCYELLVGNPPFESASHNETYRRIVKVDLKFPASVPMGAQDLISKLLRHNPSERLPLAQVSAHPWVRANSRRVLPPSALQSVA
row,SMILES,AC50 [µM]
1,CC(C)c1ccc(NC(=O)c2cccs2)c(-c2nc3ccccc3[nH]c2=O)c1,7.79

# Same assay, conditions: Recombinant Aurora B, 33P-ATP filter-binding scintillation; at 10 µM (top of the series)
row,SMILES,"activity change, negative = inhibition"
1,COc1ccc(NC(=O)c2cccs2)c(-c2nc3ccccc3[nH]c2=O)c1,inactive
2,O=C(Nc1ccc(Cl)cc1-c1nc2ccccc2[nH]c1=O)c1cccs1,inactive
3,O=C(Nc1ccccc1-c1nc2ccccc2[nH]c1=O)c1ccccn1,inactive
4,O=C(Nc1cc(F)ccc1-c1nc2ccccc2[nH]c1=O)c1cccs1,inactive
5,O=C(Nc1ccccc1-c1nc2ccccc2[nH]c1=O)c1ccc(F)cc1,inactive
6,O=C(Nc1ccc(F)cc1-c1nc2ccccc2[nH]c1=O)c1cccs1,inactive
7,O=C(Nc1ccc(OC(F)(F)F)cc1-c1nc2ccccc2[nH]c1=O)c1cccs1,inactive
8,O=C(Nc1ccccc1-c1nc2ccccc2[nH]c1=O)c1cccc(Cl)c1,inactive
9,COc1ccc(C(=O)Nc2ccccc2-c2nc3ccccc3[nH]c2=O)cc1,inactive
10,O=C(Nc1ccccc1-c1nc2ccccc2[nH]c1=O)c1cccs1,inactive
11,O=C(Nc1ccccc1-c1nc2ccccc2[nH]c1=O)c1cccnc1,inactive
12,O=C(Nc1cc(Cl)ccc1-c1nc2ccccc2[nH]c1=O)c1cccs1,inactive
